According to patent US20250041329A1, “ACIDIC POLYMER COMPOSITIONS AND METHODS OF USE THEREOF” (NexEos Diagnostics, Inc., priority 2023, published 2025):
Where two headings read alike, the source gives them in different places.

B1: eMBP1: eosinophil major basic protein-1, 13.8 kDa single polypeptide of the eosinophil granule core; stimulus in the assays (protein, UniProt P13727 17-222, looked up)
Bone marrow proteoglycan: LHLRSETSTFETPLGAKTLPEDEETPEQEMEETPCRELEEEEEWGSGSEDASKKDGAVESISVPDMVDKNLTCPEEEDTVKVVGIPGCQTCRYLLVRSLQTFSQAWFTCRRCYRGNLVSIHNFNINYRIQCSVSALNQGQVWIGGRITGSGRCRRFQWVDGSRWNFAYWAAHQPWSRGGHCVALCTRGGHWRRAHCLRRLPFICSY
modifications: Bone marrow proteoglycan
notes: eosinophil major basic protein-1, 13.8 kDa single polypeptide of the eosinophil granule core; stimulus in the assays

Legend:
[1] = biological target: T1, eMBP1 (Homo sapiens, UniProt P13727); assay: eMBP1 neutralization assay; type: cell-based; details: for Hill Slope: eMBP1 neutralization curve fit; for IC50: eMBP1 neutralization potency
T1 construct: the pro-piece is removed during granule maturation in the eosinophilic leukocyte to convert pro-eMBP1 to eMBP1
T1 sequence (P13727 106-222): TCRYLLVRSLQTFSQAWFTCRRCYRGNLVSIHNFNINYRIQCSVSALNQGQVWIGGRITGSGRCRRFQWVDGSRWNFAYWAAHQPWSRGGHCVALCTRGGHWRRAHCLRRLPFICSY
From the text: Methods: The goal of the investigation is to design and test a peptide product to neutralize and, thus, mitigate toxic effects of eosinophil granule proteins as a treatment for eosinophil-related diseases. Specifically, one aim is to test various polymers of acidic amino acids (i.e., glutamate and aspartate) for their ability to neutralize eMBP1 and compare their potencies to those of the pro-piece of pro-eosinophil major basic protein 1 (pro-eMBP1) as well as various heparins, i.e., low molecular weight heparin, high molecular weight heparin, and unfractionated heparin.
Because pro-piece (PP) can neutralize the toxicity of eMBP1, we reasoned that a careful study of the carbohydrate and acidic peptide structures might elucidate the comparative functions of these domains and lead to an effective eMBP1 inhibitor. We obtained heparins and polymers of the acidic amino acids, glutamic and aspartic, and compared their potencies in the eMBP1 neutralization assay.

[2] = cited from earlier work
[3] = biological target: T1, eMBP1; assay: Inhibition of eMBP1-stimulated histamine release from mast cells; type: cell-based; details: each inhibitor 50 μg/ml; eMBP1 10^−6 M; rat peritoneal mast cells; FIGS. 3A-3B
Method: (§1) Methods: To determine if the compounds shown in Table 2 had the ability to inhibit eMBP1 in a different assay, the compounds were tested for their ability to inhibit eMBP1-stimulated histamine release from mast cells. Peritoneal cells from male rats were harvested, enriched by centrifugation through a cushion of 38% bovine serum albumin (with purities up to about 90%), and stimulated with eMBP1. As expected from previous work, eMBP1 at a concentration of 10^−6 M stimulated histamine release. Specifically, approximately 63% of total histamine was released (as determined by boiling the rat mast cells), and 84% was released in comparison to the amount released by compound 48/80 at 0.1 μg/ml.
In order to test inhibition of eMBP1-stimulated histamine release, each inhibitor was provided as a concentration of 50 μg/ml. Polyglutamic acid (Sigma P4761) in the molecular weight range of 15-50 kDa was utilized for testing.

[4] = system: mast cells; assay: Histamine release from mast cells stimulated with eMBP1; type: cell-based, rat; details: eMBP1 10^−6 M
Method: as §1

[5] = IC50 molar concentration, read-out: IC50

Molecule | Hill Slope [1] | IC50 [1] [µg/mL] | IC50 [1, 5] [nM] | other results
N[C@@H](CC(=O)O)C(=O)O [monomer aspartic acid, aspartic acid, reference compound] | – | – | – | eMBP1 inhibitory activity (in words) ([1]; eMBP1 neutralization, Table 2 / FIG. 1): devoid of eMBP1 inhibitory activity; pKa [2]: about 1.92
Polyglutamic acid | – | – | – | inhibition of eMBP1-stimulated histamine release [3]: roughly comparably and more potently than unfractionated heparin and both glycosylated and unglycosylated pro-piece
α poly-D-glutamic acid | 2.445 | 5.197 | 157 | –
α poly-L-aspartic acid [α poly-L-Asp 1.15 kDa] | 2.808 | 14.3 | 12400 | –
α poly-L-aspartic acid [α poly-L-Asp 5.75 kDa] | 2.929 | 4.817 | 838 | –
α poly-L-aspartic acid [α poly-L-Asp 23 kDa] | 3.061 | 4.301 | 187 | –
α poly-L-glutamic acid [α poly-L-Glu 2.6 kDa] | 2.581 | 6.965 | 2680 | –
α poly-L-glutamic acid [α poly-L-Glu 7.5 kDa] | 3.202 | 6.158 | 821 | –
α poly-L-glutamic acid [α poly-L-Glu 9 kDa] | 3.499 | 5.961 | 662 | –
α poly-L-glutamic acid [α poly-L-Glu 33 kDa] | 2.786 | 5.118 | 155 | –
α poly-L-glutamic acid [α poly-L-Glu 120 kDa] | 2.621 | 4.525 | 37.7 | –
γ polyglutamic acid [γ poly-Glu 1.2 kDa] | 2.177 | 19.6000 | 16300 | –
γ polyglutamic acid [γ poly-Glu <10 kDa] | 2.534 | 4.62 | > 462 | –
γ polyglutamic acid [γ poly-Glu >700 kDa] | 11.5 | 3.317 | < 4.74 | –
B1 | – | – | – | histamine released in comparison to the amount released by compound 48/80 ([4]; compound 48/80 at 0.1 μg/ml): 84%; histamine released, of total histamine ([4]; total determined by boiling the rat mast cells): approximately 63%
